From patent US11999715B2, “ASK1 inhibiting agents” (BIOGEN MA INC., priority 2018, dated 2024) come the findings set out here.

Each structure is given as a SMILES string. A value given as a limit tells only on which side of the number the result lay.

The target in experiment [1] is T1, ASK1 T838 auto phosphorylation (Homo sapiens, UniProt Q99683).
T1 sequence (Q99683 1-1374): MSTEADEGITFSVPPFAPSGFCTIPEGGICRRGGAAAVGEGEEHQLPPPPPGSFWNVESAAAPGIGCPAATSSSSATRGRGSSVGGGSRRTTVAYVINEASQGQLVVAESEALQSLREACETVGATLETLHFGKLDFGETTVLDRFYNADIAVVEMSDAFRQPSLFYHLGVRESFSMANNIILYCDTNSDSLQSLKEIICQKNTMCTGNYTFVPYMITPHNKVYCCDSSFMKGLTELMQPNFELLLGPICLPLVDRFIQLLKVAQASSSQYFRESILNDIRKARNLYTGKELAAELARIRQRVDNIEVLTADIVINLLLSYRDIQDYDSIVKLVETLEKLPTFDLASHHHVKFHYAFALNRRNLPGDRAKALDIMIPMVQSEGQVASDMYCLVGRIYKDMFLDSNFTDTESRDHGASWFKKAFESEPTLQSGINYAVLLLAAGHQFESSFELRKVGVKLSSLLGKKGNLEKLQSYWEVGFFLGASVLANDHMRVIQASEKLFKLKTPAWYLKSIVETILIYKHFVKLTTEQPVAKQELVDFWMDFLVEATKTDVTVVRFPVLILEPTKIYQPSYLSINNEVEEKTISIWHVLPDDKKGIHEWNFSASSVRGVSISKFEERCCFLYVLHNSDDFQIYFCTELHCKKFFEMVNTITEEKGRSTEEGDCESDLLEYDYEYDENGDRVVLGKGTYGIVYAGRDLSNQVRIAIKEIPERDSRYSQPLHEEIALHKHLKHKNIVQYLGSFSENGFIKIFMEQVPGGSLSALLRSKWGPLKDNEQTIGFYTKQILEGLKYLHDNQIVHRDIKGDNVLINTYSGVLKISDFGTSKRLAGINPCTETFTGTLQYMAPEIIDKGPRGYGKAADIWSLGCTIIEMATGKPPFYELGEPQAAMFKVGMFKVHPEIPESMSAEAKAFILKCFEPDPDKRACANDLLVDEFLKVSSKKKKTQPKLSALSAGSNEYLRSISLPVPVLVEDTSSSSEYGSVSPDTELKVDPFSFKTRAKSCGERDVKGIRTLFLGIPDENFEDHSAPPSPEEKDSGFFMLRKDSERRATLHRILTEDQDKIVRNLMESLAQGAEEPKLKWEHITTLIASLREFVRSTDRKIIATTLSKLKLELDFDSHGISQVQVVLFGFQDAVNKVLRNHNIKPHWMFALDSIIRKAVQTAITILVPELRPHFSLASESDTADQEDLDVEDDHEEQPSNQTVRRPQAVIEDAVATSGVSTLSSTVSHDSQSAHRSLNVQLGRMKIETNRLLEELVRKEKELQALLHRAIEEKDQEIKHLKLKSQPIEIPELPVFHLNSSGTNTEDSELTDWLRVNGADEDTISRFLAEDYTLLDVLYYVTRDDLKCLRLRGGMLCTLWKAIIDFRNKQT
Kind of experiment: ASK1 (AUTO PHOS T838) assay, MSD format, in HEK-293T cells transfected with ASK1-V5. The class given is cell-based. To be noted: ASK1 T838 auto phosphorylation in HEK-293T cells, 1 hr compound incubation; class symbols. The protocol:
Example 112: Brief Description of ASK1(AUTO PHOS T838) Assay ASK1 T838 auto phosphorylation was measured in HEK-293T cells using MSD assay format. HEK 293T cells were seeded in 15 cm plates at a density of 18 million cells and 20 mL DMEM with 10% FBS, Pen/Strep media. The plates were incubated at 37° C. overnight. Media on plates was changed to OPTI-MEM, serum free media and cells were transfected with 9 μg of ASK1-V5 tagged full length plasmid using Lipofectamine 2000 (Invitrogen) and the plates were incubated at 37° C. overnight. Cells were trypsinized, counted on Nexcellometer and plated into 96 well tissue culture plates with 100,000 cells/well and 200 μL media. Cells were incubated for 4 hr at 37° C. then ASK1 compounds were added using a HP 300e. Compounds were tested at 20 μM with 3 fold, 10 point dilution points then incubated for 1 hr at 37° C. A lysis buffer (Cell Signaling) was prepared with protease and phosphatase inhibitor and maintained at 4° C. until use. Media from cells was discarded and 120 μL of cold lysis buffer was added to the cells, the plate was shaken 4° C. for 1 hr. Lysate was mixed using Apricot liquid handler; aspirating up and down 16 times at high speed using 50 μL volume. […] Plates were then incubated on a plate shaker overnight at 4° C. Plates were washed 3× with MSD wash buffer and 50 μL of rabbit anti-pASK1 T838 antibody was added to the wells and incubated for 2 hr at room temperature on a plate shaker. Plates were then washed and 50 μL of goat anti-rabbit sulfa-tag (1:500 dilution) was added to wells, and incubated for 1 hr at room temperature on a plate shaker. […] Plates were immediately read on a MSD Instrument Reader where chemoluminescence signal was measured. Data was analyzed using Graph Pad or Genedata, the data was normalized and plotted, % activity versus log of compound concentration. The IC50 values were obtained from a 4 parameter fit. The compounds described herein were tested for in the above cell-based assay.

Experiment [2] has as its target T2, ASK1/MAP3K5 (Homo sapiens, UniProt Q99683).
T2 sequence (Q99683 1-1374): T1 sequence (Q99683 1-1374)
The experiment in a line: ASK1/MAP3K5 kinase assay by Reaction Biology Corp. (headed ASK1 TR-FRET Assay). The class given is biochemical. To be noted: 20 μM myelin basic protein, 10 μM ATP, class symbols. The protocol: Example 111: Brief Description of ASK1 TR-FRET Assay The protein kinase inhibitory activity of the compounds described herein were tested using the ASK1/MAP3K5 assay by Reaction Biology Corp. (Malvern, PA). The assay procedure follows (and is also available on the Reaction Biology Corp. website). Base Reaction Buffer: 20 mM Hepes (pH 7.5), 10 mM MgCl2, 1 mM EGTA, 0.02% Brij35, 0.02 mg/mL BSA, 0.1 mM Na3VO4, 2 mM DTT, 1% DMSO; Substrate: 20 μM of myelin basic protein (MBP) and 10 μM ATP; Protein kinase: ASK1/MAP3K5. Reaction Procedure: • 1. Prepare indicated substrate in freshly prepared Base Reaction Buffer. • 2. Deliver any required cofactors to the substrate solution. • 3. Deliver indicated kinase into the substrate solution and gently mix. • 4. Deliver compounds in DMSO into the kinase reaction mixture by Acoustic; technology (Echo550; nanoliter range), incubate for 20 minutes at room temperature. • 5. Deliver ^33P-ATP (specific activity 10 μCi/μL) into the reaction mixture to initiate the reaction. • 6. Incubate kinase reaction for 2 hours at room temperature. • 7. Reactions are spotted onto P81 ion exchange paper. • 8. Detect kinase activity by filter-binding method.
Background: In TR-FRET formats the signal depends on donor and acceptor labels being close together.

`COc1nn(C)cc1C(=O)Nc1cccc(-c2nncn2C2CCC2)n1` [Example 17, N-(6-(4-Cyclobutyl-4H-1,2,4-triazol-3-yl)pyridin-2-yl)-3-methoxy-1-methyl-1H-pyrazole-4-carboxamide]: the IC50 (usually the concentration that inhibits the measured activity by half) in experiment [1] is no more than 1 µM; in experiment [2], no more than 0.1 µM.
As to `CC(C)n1cnnc1-c1cccc(NC(=O)c2cn(-c3cncc(O)c3)nc2C(F)F)n1` [Example 80, 3-(Difluoromethyl)-1-(5-hydroxypyridin-3-yl)-N-(6-(4-isopropyl-4H-1,2,4-triazol-3-yl)pyridin-2-yl)-1H-pyrazole-4-carboxamide], the IC50 was no more than 1 µM in experiment [1] and no more than 0.1 µM in experiment [2].
Take `COc1nn(-c2cncc(C#N)c2)cc1C(=O)Nc1cccc(-c2nncn2C(C)C)n1` [Example 69, 1-(5-Cyanopyridin-3-yl)-N-(6-(4-isopropyl-4H-1,2,4-triazol-3-yl)pyridin-2-yl)-3-methoxy-1H-pyrazole-4-carboxamide]: the IC50 in experiment [1] was no more than 1 µM; in experiment [2] it was no more than 0.1 µM.
Taken in the same sequence, the figures for `COc1nn(C)cc1C(=O)Nc1cccc(-c2nncn2[C@@H](C)C(C)C)n1` [Example 29, (S)-3-Methoxy-1-methyl-N-(6-(4-(3-methylbutan-2-yl)-4H-1,2,4-triazol-3-yl)pyridin-2-yl)-1H-pyrazole-4-carboxamide] were no more than 1 µM and no more than 0.1 µM.
Taken in the same sequence, the figures for `COc1nn(C)cc1C(=O)Nc1cccc(-c2nncn2C2CC2)n1` [Example 18, N-(6-(4-Cyclopropyl-4H-1,2,4-triazol-3-yl)pyridin-2-yl)-3-methoxy-1-methyl-1H-pyrazole-4-carboxamide] were no more than 1 µM and no more than 0.1 µM.
Taken in the same sequence, the figures for `CCn1cc(C(=O)Nc2cccc(-c3nncn3C(C)C(F)(F)F)n2)c(OC)n1` (stereo not shown) [Example 13, 1-Ethyl-3-methoxy-N-(6-(4-(1,1,1-trifluoropropan-2-yl)-4H-1,2,4-triazol-3-yl)pyridin-2-yl)-1H-pyrazole-4-carboxamide] were no more than 1 µM and no more than 0.1 µM.
Turning to `COc1nn(CC(F)(F)F)cc1C(=O)Nc1cccc(-c2nncn2C(C)C)n1` [Example 102, N-(6-(4-Isopropyl-4H-1,2,4-triazol-3-yl)pyridin-2-yl)-3-methoxy-1-(2,2,2-trifluoroethyl)-1H-pyrazole-4-carboxamide], the values for the IC50 in experiment [1] and in experiment [2] were no more than 1 µM and no more than 0.1 µM, respectively.
Taken in the same sequence, the figures for `COC[C@H](C)n1cnnc1-c1cccc(NC(=O)c2cn(C)nc2OC)n1` (single isomer, unassigned) [Example 33] were no more than 1 µM and no more than 0.1 µM.
For `COc1nn(-c2cncc(C)c2)cc1C(=O)Nc1cccc(-c2nncn2C(C)C)n1` [Example 67, N-(6-(4-Isopropyl-4H-1,2,4-triazol-3-yl)pyridin-2-yl)-3-methoxy-1-(5-methylpyridin-3-yl)-1H-pyrazole-4-carboxamide] the same measures were no more than 1 µM and no more than 0.1 µM.
Taken in the same sequence, the figures for `COc1nn(C)cc1C(=O)Nc1cccc(-c2nncn2C(C)(C)C)n1` [Example 21, N-(6-(4-(tert-Butyl)-4H-1,2,4-triazol-3-yl)pyridin-2-yl)-3-methoxy-1-methyl-1H-pyrazole-4-carboxamide] were no more than 1 µM and no more than 0.1 µM.
For `CC(C)n1cnnc1-c1cccc(NC(=O)c2cn(-c3cncc(C#N)c3)nc2C(F)F)n1` [Example 76, 1-(5-Cyanopyridin-3-yl)-3-(difluoromethyl)-N-(6-(4-isopropyl-4H-1,2,4-triazol-3-yl)pyridin-2-yl)-1H-pyrazole-4-carboxamide], the IC50 was no more than 1 µM in experiment [1] and no more than 0.1 µM in experiment [2].
Taken in the same sequence, the figures for `COc1nn(CC(C)C)cc1C(=O)Nc1cccc(-c2nncn2C(C)C(F)(F)F)n1` (stereo not shown) [Example 43, 1-Isobutyl-3-methoxy-N-(6-(4-(1,1,1-trifluoropropan-2-yl)-4H-1,2,4-triazol-3-yl)pyridin-2-yl)-1H-pyrazole-4-carboxamide] were no more than 1 µM and no more than 0.1 µM.
Taken in the same sequence, the figures for `COc1nn(C)cc1C(=O)Nc1cccc(-c2nncn2[C@@H]2CCCNC2)n1` [Example 39, (R)-3-Methoxy-1-methyl-N-(6-(4-(piperidin-3-yl)-4H-1,2,4-triazol-3-yl)pyridin-2-yl)-1H-pyrazole-4-carboxamide] were 1 to 10 µM and 1 to 10 µM.
With `COc1nn(C)cc1C(=O)Nc1cccc(-c2nncn2[C@H](C)C(F)(F)F)n1` [Example 11, (R)-3-Methoxy-1-methyl-N-(6-(4-(1,1,1-trifluoropropan-2-yl)-4H-1,2,4-triazol-3-yl)pyridin-2-yl)-1H-pyrazole-4-carboxamide], the IC50 in experiment [1] was no more than 1 µM; in experiment [2], 0.1 to 1 µM.
Taken in the same sequence, the figures for `COc1nn(CC(F)(F)F)cc1C(=O)Nc1cccc(-c2nncn2[C@@H](C)C(C)C)n1` [Example 104, (S)-3-Methoxy-N-(6-(4-(3-methylbutan-2-yl)-4H-1,2,4-triazol-3-yl)pyridin-2-yl)-1-(2,2,2-trifluoroethyl)-1H-pyrazole-4-carboxamide] were no more than 1 µM and no more than 0.1 µM.
For `CC(C)n1cnnc1-c1cccc(NC(=O)c2cn(C)nc2C(F)(F)F)n1` [Example 5, N-(6-(4-Isopropyl-4H-1,2,4-triazol-3-yl)pyridin-2-yl)-1-methyl-3-(trifluoromethyl)-1H-pyrazole-4-carboxamide] the same measures were 1 to 10 µM and 0.1 to 1 µM.
For `CC(C)n1cnnc1-c1cccc(NC(=O)c2cn(CC3CC3)nc2C(F)F)n1` [Example 50, 1-(Cyclopropylmethyl)-3-(difluoromethyl)-N-(6-(4-isopropyl-4H-1,2,4-triazol-3-yl)pyridin-2-yl)-1H-pyrazole-4-carboxamide] the same measures were no more than 1 µM and no more than 0.1 µM.
